In US20220264883A1, “IMIDAZOTHIAZOLE COMPOUNDS AND METHODS FOR TREATING PLANT NEMATODE INFECTIONS” (The Governing Council of the University of Toronto, priority 2019, published 2022):
Several values for one entry are separate records, joined by “and”; a condition that tells them apart may be missing. Equal entries are not always repeated. Where two headings read alike, the source gives them in different places.

Tests used:
[1] = Saccharomyces cerevisiae (budding yeast) dose-response experiments; format: cell-based; settings: Saccharomyces cerevisiae, yeast strain RY0568 culture; non-target system; growth over 18 hours; read-out: S. cerevisiae LC50
Method: A saturated culture of the yeast strain RY0568 was diluted to an OD600 of 0.015 with fresh YPD media (see ref. 62). 100 μL of this dilute yeast suspension was added to each well of a 96-well plate. The yeast were grown for 4 hours at 30° C. with shaking at 140 rpm. Using a multichannel pipette, 1 μL of chemical solution was added to each well to achieve the desired final concentrations. The final DMSO concentration was 1% (v/v). The microwell plate was then loaded into a TECAN plate reader set at 30° C. The OD600 of each well was measured over an 18-hour period, and the plate was shaken intermittently throughout the run. The areas under the resultant growth curves were calculated using R scripts adapted from those found in the MESS package. The area under the curve at each concentration of a dose-response assay was divided by the area under the curve for the corresponding DMSO control, resulting in a “relative fitness” value for each concentration tested. Three biological replicates were performed for each dose-response experiment, and the relative fitness values were averaged across the three replicates.

C. elegans [2] = assay: C. elegans dose-response experiments (wild type; embryo to adult and dauer stages); format: in vivo; settings: for LC50: Caenorhabditis elegans
Method: (§1) Forty microliters of an HB101 bacterial suspension in liquid NGM (see above) was added to each well of a 96-well flat-bottom culture plate, after which approximately 25 synchronized L1 worms, in 10 μl of M9 buffer (see ref. 59 for the recipe), were added to each well. The synchronized L1 worms were obtained from an embryo preparation performed the previous day (see ref. 59 for the protocol). For the L1 assays, 0.5 μl of chemical solution (or DMSO alone) was immediately added to the wells using a multichannel pipette, the final DMSO concentration is 1% (v/v). The worms were incubated for 3 days at 20° C. and the number of viable animals was counted. […] Although the counts were performed after 3 days of incubation in the chemical, it was noted that the L1s were dead within 24 hours of the addition of the chemicals. For the L2/L3 assays, the worms were incubated in the absence of chemical for 1 day at 20° C. until they reached the L2/L3 stage, at which point chemical was added as described above. The worms were then allowed to incubate for 2 days at 20° C. and the number of viable animals was counted as described for the L1 assay. For the L4 assays, the worms were incubated for 2 days at 20° C. before the addition of chemicals. The L4-stage worms were then incubated in chemical for an additional day before quantifying the number of viable animals. The adult assays were performed the same way as the L4 assays, however HT115 E. coli carrying the empty dsRNA expressing vector L4440 was used in place of HB101 and the worms were cultured at 25° C. as opposed to 20° C. for the entirety of the experiment. The HT115 suspension was made by concentrating a bacterial culture, with an OD600 of ˜ 0.8, five-fold with liquid NGM containing 1 mM IPTG and 100 μg/ml carbenicillin. The HT115 cells were induced with 1 mM IPTG for one hour before concentrating with NGM.
For the dose-response experiments with embryos, eggs obtained from an embryo preparation were immediately aliquoted into 96-well plate wells. Approximately 25 embryos in 50 μl of M9 buffer were added to each well, and 0.5 μl volumes of the chemicals were added via multichannel, in the same way as for the L1 dose-response assays described above. The plates were incubated at 20° C. for 1 day, at which point the number of hatched eggs was counted.
For the dauer dose-response assays, the CB1370 strain carrying the temperature sensitive daf-2(e1370) allele was used. When grown at the non-permissive temperature of 25° C. these mutants will enter dauer constitutively. The assay was performed similarly to the […] described above, however the L1 worms were allowed to grow for 2 days at 25° C. until they became dauer larvae. At this point chemical was added and the dauers were incubated for 2 days at 25° C. before quantitation of viability. After 2 days, all of the dauer larvae, including the DMSO controls, were relatively motionless and appeared as rigid rods. To activate the worms, 1 μl of 1 N sodium hydroxide was added to each well and the plates were agitated vigorously before counting. This was done one well at a time.
At least three biological replicates were performed for each dose-response assay. For each biological replicate, two technical replicates were performed and the numbers of viable animals for each technical replicate were combined (i.e. ˜50 worms assayed per concentration). The number of viable worms at each concentration was divided by the corresponding DMSO control value to give the “relative viability” for each concentration. The “relative viability” values were then averaged across the biological replicates. LC50 values were calculated using Graphpad Prism. The concentration values were log-transformed and a four-parameter logistic curve was fitted to the dose-response data by non-linear regression, from which the LC50 values were extracted.

C. elegans [3] = assay: C. elegans minimum lethal concentration dose-response; format: in vivo, Caenorhabditis elegans; settings: Caenorhabditis elegans, C. elegans viability
Method: as §1
Compounds Ia to Im, dose-response assays were performed with C. elegans. 8 of the compounds killed C. elegans with minimum lethal concentrations less than or equal to 100 μM (Table 6). Compounds Ia, Ic, and Ij were the most potently lethal nematicides in this assay, having minimum lethal concentrations of 6.25 μM and below. The positive control nematicide tioxazafen killed nematodes at 3.13 μM and above.

[4] = Danio rerio (zebrafish) embryo dose-response experiments; format: in vivo; settings: AB/Tubingen, Danio rerio (zebrafish), in vivo, other: immersion in chemical-treated water; non-target system; embryos, 24 hours exposure; read-out: D. rerio LC50
Method: Zebrafish chemical assays were performed similarly to previously described methods^63. In brief, fish were maintained at 28.5° C. on a 14/10 hour light/dark cycle and staged according to hours post fertilization (hpf). For each biological replicate, eggs from LT fish (AB/Tubingen strain) were collected at 4 hpf. At 24 hpf, embryos were arrayed in 24 well plates, 10 per well. In 2 ml tubes, 4 μl of chemical dissolved in DMSO at the appropriate concentration was added to 800 μl of water and then vortexed for 30 s intensively. Water was removed from the embryos in the wells and 800 μl of chemical-treated water was transferred to each of the wells. The DMSO control wells contained DMSO alone. The final DMSO concentration in every well was 0.5% (v/v). […] The embryos were incubated in the chemicals for 24 hours and scored for death and toxicity at 48 hpf. Toxicity was defined as the embryos showing developmental defects such as a curved body, reduced body size, skin whiteness, and heart edema. “Relative viability” was calculated by dividing the number of viable and properly developed embryos in the treatment wells by the average number of viable and properly developed embryos across six DMSO control wells. Three biological replicates were performed for each dose-response experiment, and the relative viability values were averaged across the three replicates.

[5] = 72 h, L1 worms, 3 days at 20° C., read-out: C. elegans LC50
[6] = wild-type, resistance none, read-out: LC50 in strain N2

| Compound | CC50 at 18 h [1] [µM] | LC50 (C. elegans [2]; [5]) [µM] | minimal effective concentration (C. elegans [3]) | LC50 at 24 h [4] [µM] | LC50 (C. elegans [2]; [6]) [µM] | killing of each developmental stage of C. elegans from embryo to adult (C. elegans [2]; FIG. 1B) | killing of the non-reproductive dauer stage of C. elegans (C. elegans [2]; daf-2(e1370) dauers, FIG. 1B) |
| --- | --- | --- | --- | --- | --- | --- | --- |
| Cc1csc2nc(-c3ccccc3)cn12 [Compound Ie] | > 100 | > 100 | > 100 µM and > 21.4 µg/mL | > 100 |  |  |  |
| Clc1ccc(-c2cn3ccsc3n2)cc1 [Ia] | > 100 | 6.9 | 1.5 µg/mL | > 100 | 6.9 | micromolar potency | can also kill the non-reproductive dauer stage |
| Fc1ccc(-c2cn3ccsc3n2)cc1 [Ib] | > 100 | 29.7 | 25 µM and 5.5 µg/mL | > 100 | 29.7 |  |  |
